Results from patent publication US7118895B2, “Process for producing aglycon by using diglycosidase and flavor-improved food containing the aglycon and converting agent to be used in the process” (Amano Enzyme Inc., priority 2000, dated 2006).

System: Crude diglycosidase
Assay: Examination of temperature in the conversion into isoflavone aglycons by diglycosidase using soybean materials
Assay type: biochemical, Penicillium multicolor IAM7153
Design: Decomposition efficiency of glycitin family in roasted soy flour / Decomposition efficiency of daidzin family in roasted soy flour / Decomposition efficiency of genistin family in soymilk / Decomposition efficiency of daidzin family in soymilk / Decomposition efficiency of glycitin family in defatted soybean / Decomposition efficiency of daidzin family in defatted soybean: concentration or dose not given beside the values
How it was run: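 Temperature series (30-80° C.) of crude diglycosidase, diluted to 1.88 AU/mL in 20 mM acetate pH 4.0, acting on roasted soy flour, soymilk, defatted soybean or soy protein concentrate. Samples quenched with ethanol after 0-6 h, centrifuged, filtered and analyzed by HPLC for glycosides versus aglycons.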

[1] = 30° C., heat treatment of enzyme no, reaction time 0 h
[2] = 30° C., heat treatment of enzyme no, reaction time 1 h
[3] = 30° C., heat treatment of enzyme no, reaction time 3 h
[4] = 30° C., heat treatment of enzyme no, reaction time 6 h
[5] = 30° C., heat treatment of enzyme yes, reaction time 6 h
[6] = 45° C., heat treatment of enzyme no, reaction time 0 h
[7] = 45° C., heat treatment of enzyme no, reaction time 1 h
[8] = 45° C., heat treatment of enzyme no, reaction time 3 h
[9] = 45° C., heat treatment of enzyme no, reaction time 6 h
[10] = 45° C., heat treatment of enzyme yes, reaction time 6 h
[11] = 45 °C, heat treatment of enzyme: no, 0 h
[12] = 45 °C, heat treatment of enzyme: no, 1 h
[13] = 45 °C, heat treatment of enzyme: no, 3 h
[14] = 45 °C, heat treatment of enzyme: no, 6 h
[15] = 45 °C, heat treatment of enzyme: yes, 6 h
[16] = 55° C., heat treatment of enzyme no, reaction time 0 h
[17] = 55° C., heat treatment of enzyme no, reaction time 1 h
[18] = 55° C., heat treatment of enzyme no, reaction time 3 h
[19] = 55° C., heat treatment of enzyme no, reaction time 6 h
[20] = 55° C., heat treatment of enzyme yes, reaction time 6 h
[21] = 55 °C, heat treatment of enzyme: no, 0 h
[22] = 55 °C, heat treatment of enzyme: no, 1 h
[23] = 55 °C, heat treatment of enzyme: no, 3 h
[24] = 55 °C, heat treatment of enzyme: no, 6 h
[25] = 55 °C, heat treatment of enzyme: yes, 6 h
[26] = 65° C., heat treatment of enzyme no, reaction time 0 h
[27] = 65° C., heat treatment of enzyme no, reaction time 1 h
[28] = 65° C., heat treatment of enzyme no, reaction time 3 h
[29] = 65° C., heat treatment of enzyme no, reaction time 6 h
[30] = 65° C., heat treatment of enzyme yes, reaction time 6 h
[31] = 65 °C, heat treatment of enzyme: no, 0 h
[32] = 65 °C, heat treatment of enzyme: no, 1 h
[33] = 65 °C, heat treatment of enzyme: no, 3 h
[34] = 65 °C, heat treatment of enzyme: no, 6 h
[35] = 65 °C, heat treatment of enzyme: yes, 6 h
[36] = 80° C., heat treatment of enzyme no, reaction time 0 h
[37] = 80° C., heat treatment of enzyme no, reaction time 1 h
[38] = 80° C., heat treatment of enzyme no, reaction time 3 h
[39] = 80° C., heat treatment of enzyme no, reaction time 6 h
[40] = 80° C., heat treatment of enzyme yes, reaction time 6 h
[41] = 80 °C, heat treatment of enzyme: no, 0 h
[42] = 80 °C, heat treatment of enzyme: no, 1 h
[43] = 80 °C, heat treatment of enzyme: no, 3 h
[44] = 80 °C, heat treatment of enzyme: no, 6 h
[45] = 80 °C, heat treatment of enzyme: yes, 6 h

Decomposition efficiency of daidzin family in concentrated soybean protein [1]: not detected | Decomposition efficiency of daidzin family in defatted soybean [1]: 43.3% | Decomposition efficiency of daidzin family in concentrated soybean protein [2]: not detected | Decomposition efficiency of daidzin family in defatted soybean [2]: 46.6% | Decomposition efficiency of daidzin family in concentrated soybean protein [3]: not detected | Decomposition efficiency of daidzin family in defatted soybean [3]: 45.2% | Decomposition efficiency of daidzin family in concentrated soybean protein [4]: not detected | Decomposition efficiency of daidzin family in defatted soybean [4]: 45.1% | Decomposition efficiency of daidzin family in concentrated soybean protein [5]: not detected | Decomposition efficiency of daidzin family in defatted soybean [5]: 45.4% | Decomposition efficiency of daidzin family in soymilk (30 °C, heat treatment of enzyme: no, 0 h): 56.8% | Decomposition efficiency of daidzin family in soymilk (30 °C, heat treatment of enzyme: no, 1 h): 58.2% | Decomposition efficiency of daidzin family in soymilk (30 °C, heat treatment of enzyme: no, 3 h): 52.8% | Decomposition efficiency of daidzin family in soymilk (30 °C, heat treatment of enzyme: no, 6 h): 46.2% | Decomposition efficiency of daidzin family in soymilk (30 °C, heat treatment of enzyme: yes, 6 h): 56.1% | Decomposition efficiency of daidzin family in roasted soy flour (35 °C, heat treatment of enzyme: no, 0 h): not detected | Decomposition efficiency of daidzin family in roasted soy flour (35 °C, heat treatment of enzyme: no, 1 h): not detected | Decomposition efficiency of daidzin family in roasted soy flour (35 °C, heat treatment of enzyme: no, 3 h): not detected | Decomposition efficiency of daidzin family in roasted soy flour (35 °C, heat treatment of enzyme: no, 6 h): not detected | Decomposition efficiency of daidzin family in roasted soy flour (35 °C, heat treatment of enzyme: yes, 6 h): not detected | Decomposition efficiency of daidzin family in concentrated soybean protein [6]: not detected | Decomposition efficiency of daidzin family in defatted soybean [6]: 43.3% | Decomposition efficiency of daidzin family in concentrated soybean protein [7]: not detected | Decomposition efficiency of daidzin family in defatted soybean [7]: 45.5% | Decomposition efficiency of daidzin family in concentrated soybean protein [8]: not detected | Decomposition efficiency of daidzin family in defatted soybean [8]: 43.7% | Decomposition efficiency of daidzin family in concentrated soybean protein [9]: not detected | Decomposition efficiency of daidzin family in defatted soybean [9]: 41.7% | Decomposition efficiency of daidzin family in concentrated soybean protein [10]: not detected | Decomposition efficiency of daidzin family in defatted soybean [10]: 44.3% | Decomposition efficiency of daidzin family in roasted soy flour [11]: not detected | Decomposition efficiency of daidzin family in soymilk [11]: 57.2% | Decomposition efficiency of daidzin family in roasted soy flour [12]: not detected | Decomposition efficiency of daidzin family in soymilk [12]: 50.2% | Decomposition efficiency of daidzin family in roasted soy flour [13]: not detected | Decomposition efficiency of daidzin family in soymilk [13]: 41.1% | Decomposition efficiency of daidzin family in roasted soy flour [14]: not detected | Decomposition efficiency of daidzin family in soymilk [14]: 30.2% | Decomposition efficiency of daidzin family in roasted soy flour [15]: not detected | Decomposition efficiency of daidzin family in soymilk [15]: 55.8% | Decomposition efficiency of daidzin family in concentrated soybean protein [16]: not detected | Decomposition efficiency of daidzin family in defatted soybean [16]: 43.3% | Decomposition efficiency of daidzin family in concentrated soybean protein [17]: not detected | Decomposition efficiency of daidzin family in defatted soybean [17]: 45.0% | Decomposition efficiency of daidzin family in concentrated soybean protein [18]: not detected | Decomposition efficiency of daidzin family in defatted soybean [18]: 42.7% | Decomposition efficiency of daidzin family in concentrated soybean protein [19]: not detected | Decomposition efficiency of daidzin family in defatted soybean [19]: 40.3% | Decomposition efficiency of daidzin family in concentrated soybean protein [20]: not detected | Decomposition efficiency of daidzin family in defatted soybean [20]: 44.1% | Decomposition efficiency of daidzin family in roasted soy flour [21]: not detected | Decomposition efficiency of daidzin family in soymilk [21]: 57.3% | Decomposition efficiency of daidzin family in roasted soy flour [22]: not detected | Decomposition efficiency of daidzin family in soymilk [22]: 50.9% | Decomposition efficiency of daidzin family in roasted soy flour [23]: not detected | Decomposition efficiency of daidzin family in soymilk [23]: 41.1% | Decomposition efficiency of daidzin family in roasted soy flour [24]: not detected | Decomposition efficiency of daidzin family in soymilk [24]: 31.1% | Decomposition efficiency of daidzin family in roasted soy flour [25]: not detected | Decomposition efficiency of daidzin family in soymilk [25]: 50.8% | Decomposition efficiency of daidzin family in concentrated soybean protein [26]: not detected | Decomposition efficiency of daidzin family in defatted soybean [26]: 43.3% | Decomposition efficiency of daidzin family in concentrated soybean protein [27]: not detected | Decomposition efficiency of daidzin family in defatted soybean [27]: 44.7% | Decomposition efficiency of daidzin family in concentrated soybean protein [28]: not detected | Decomposition efficiency of daidzin family in defatted soybean [28]: 41.6% | Decomposition efficiency of daidzin family in concentrated soybean protein [29]: not detected | Decomposition efficiency of daidzin family in defatted soybean [29]: 37.3% | Decomposition efficiency of daidzin family in concentrated soybean protein [30]: not detected | Decomposition efficiency of daidzin family in defatted soybean [30]: 35.2% | Decomposition efficiency of daidzin family in roasted soy flour [31]: not detected | Decomposition efficiency of daidzin family in soymilk [31]: 56.8% | Decomposition efficiency of daidzin family in roasted soy flour [32]: not detected | Decomposition efficiency of daidzin family in soymilk [32]: 51.7% | Decomposition efficiency of daidzin family in roasted soy flour [33]: not detected | Decomposition efficiency of daidzin family in soymilk [33]: 43.9% | Decomposition efficiency of daidzin family in roasted soy flour [34]: not detected | Decomposition efficiency of daidzin family in soymilk [34]: 35.3% | Decomposition efficiency of daidzin family in roasted soy flour [35]: not detected | Decomposition efficiency of daidzin family in soymilk [35]: 42.4% | Decomposition efficiency of daidzin family in concentrated soybean protein [36]: not detected | Decomposition efficiency of daidzin family in defatted soybean [36]: 43.3% | Decomposition efficiency of daidzin family in concentrated soybean protein [37]: not detected | Decomposition efficiency of daidzin family in defatted soybean [37]: 39.8% | Decomposition efficiency of daidzin family in concentrated soybean protein [38]: not detected | Decomposition efficiency of daidzin family in defatted soybean [38]: 28.8% | Decomposition efficiency of daidzin family in concentrated soybean protein [39]: not detected | Decomposition efficiency of daidzin family in defatted soybean [39]: 17.8% | Decomposition efficiency of daidzin family in concentrated soybean protein [40]: not detected | Decomposition efficiency of daidzin family in defatted soybean [40]: 17.4% | Decomposition efficiency of daidzin family in roasted soy flour [41]: not detected | Decomposition efficiency of daidzin family in soymilk [41]: 57.2% | Decomposition efficiency of daidzin family in roasted soy flour [42]: not detected | Decomposition efficiency of daidzin family in soymilk [42]: 50.8% | Decomposition efficiency of daidzin family in roasted soy flour [43]: not detected | Decomposition efficiency of daidzin family in soymilk [43]: 36.4% | Decomposition efficiency of daidzin family in roasted soy flour [44]: not detected | Decomposition efficiency of daidzin family in soymilk [44]: 23.0% | Decomposition efficiency of daidzin family in roasted soy flour [45]: not detected | Decomposition efficiency of daidzin family in soymilk [45]: 21.8%
Structure (SMILES): O=C(O)CC(=O)OC[C@H]1O[C@@H](Oc2ccc3c(=O)c(-c4ccc(O)cc4)coc3c2)[C@H](O)[C@@H](O)[C@@H]1O [malonyldaidzin, 6″-O-malonyldaidzin]
